Measured values as given in article PMC11545984, “1,3-Dipolar Cycloaddition of Nitrile Oxides and Nitrilimines to (−)-β-Caryophyllene: Stereoselective Synthesis of Polycyclic Derivatives and Their Biological Testing” (International Journal of Molecular Sciences, 2024).
Read-outs that look alike come from different tables or passages of the source.

Key:
MDCK cells = assay: Cytotoxicity in MDCK cells (MTT, CC50); conditions: uninfected MDCK cells, 48 h
[1] = test system: influenza virus A/Puerto Rico/8/34 (H1N1); assay: Antiviral (cytoprotective) activity in MDCK cells, MTT; type: cell-based
A549 = assay: Initial cytotoxicity testing (MTT test), A549; type: cell-based, human; conditions: Homo sapiens, A549, 72 h, read-out: cytotoxicity A549
Method: (§1) Colon cancer (HCT116, HT29), breast cancer (MCF7, SKBR3), melanoma (SK-MEL28), lung cancer (A549), prostate cancer (DU145), human normal cells (VA-13 and HEK293), and murine mammary cell lines (EMT6) were purchased from ATCC (Manassas, VA, USA). Cells were routinely grown in RPMI 1640 culture medium, supplemented with 10% fetal bovine serum, glutamine, and 100 U/mL penicillin. HCT116, HT29, MCF7, SKBR3, SK-MEL28, A549, DU145, VA-13, HEK293, and EMT6 cells were grown in flasks in RPMI 1640 fresh culture medium with supplements at 37 °C and 5% CO2. Cells were grown as monolayer cultures, and the cells in the exponential growth phase were trypsinized and suspended in the supplemented RPMI 1640 medium.
(§2) To evaluate the cytotoxicity of the compounds, we placed cells in (20–30) × 10^3 cells/mL concentrations in 96-well culture plates for 24 h. Cells were counted after treatment with Trypan blue solution (0.4%). They were then exposed to two different concentrations of compounds 16–30 (50–100 µM) dilutions in pre-incubated cells at 37 °C for 72 h. In control wells with untreated cells, only (DMSO + PBS) was added. Cell viability was measured by the standard MTT test. The stock solutions of each compound were prepared in DMSO following by preparation of serial dilutions in PBS.
(§3) The absorbance was measured at 540 nm using a Multiskan™ FC microplate photometer and the Skanlt software 6.1 RE for microplate reader, both from Thermo Scientific (Waltham, MA, USA). Experiments were carried out in triplicate; to perform the statistical analysis, more concentrations should be evaluated.

[2] = Initial cytotoxicity testing (MTT test), VA-13; type: cell-based, human; conditions: human healthy cells, MTT, 72 h, two concentrations 50–100 µM
Method: as §1, §2, §3

DU145 = assay: Initial cytotoxicity testing (MTT test), DU145; type: cell-based, human; conditions: Homo sapiens, DU-145, 72 h, read-out: cytotoxicity DU145
Method: as §1, §2, §3

in vitro = conditions: dog
[3] = Initial cytotoxicity testing (MTT test), HEK293; type: cell-based, human; conditions: human healthy cells, MTT, 72 h, two concentrations 50–100 µM
Method: as §1, §2, §3

[4] = test system: DU145, A549, VA-13, HEK293, EMT6; assay: Initial cytotoxicity testing (MTT test), all cell lines together; type: cell-based; conditions: after 72 h, read-out: IC50 on all cells
Method: as §1, §2, §3

VA-13 = assay: Initial cytotoxicity testing (MTT test), VA-13; type: cell-based, human; conditions: Homo sapiens, VA-13; normal cells, initial testing
Method: as §1, §2, §3

HEK293 = assay: Initial cytotoxicity testing (MTT test), HEK293; type: cell-based, human; conditions: Homo sapiens, HEK293; normal cells, initial testing
Method: as §1, §2, §3

[5] = H1N1, infected MDCK cells, m.o.i. 0.01, 48 h, 50% cell protection, read-out: IC50

Structure (SMILES) | CC50 (MDCK cells) | IC50 [1, 5] | IC50 (A549) | IC50 at 72 h [2] | IC50 (DU145) | CC50 at 48 h (in vitro) | IC50 at 72 h [3] | IC50 [4] | IC50 (VA-13) | IC50 (HEK293) | IC50 ([1]; H1N1, MDCK, 48 h)
NC12CC3CC(CC(C3)C1)C2 [Amantadine, reference compound] | 284 ± 21 µM | 64 ± 5 µM | – | – | – | – | – | – | – | – | –
C/C1=C\CC[C@@]2(CC(c3ccc(Cl)cc3)=NO2)[C@H]2CC(C)(C)[C@@H]2CC1 [Compound 16a, (1S,2R,9R,E)-3′-(4-Chlorophenyl)-6,10,10-trimethyl-4′H-spiro[bicyclo [7.2.0]undecane-2,5′-isoxazol]-5-ene] | – | 9.8 ± 1.3 µM | > 50 µM | > 50 µM | > 50 µM | 125 ± 6.5 µM | > 50 µM | – | – | – | –
C=C1CC[C@@H]2C(c3ccc(Cl)cc3)=NO[C@@]2(C)CC[C@@H]2[C@@H]1CC2(C)C [Compound 16b, (3aR,6aS,8aR,10aS)-3-(4-chlorophenyl)-8,8,10a-trimethyl-6-methylene-3a,5,6,6a,7,8,8a,9,10,10a-decahydro-4H-cyclobuta [5,6]cyclonona [1,2-d]isoxazole] | – | 16.8 ± 2.2 µM | > 50 µM | > 50 µM | > 50 µM | 20.2 ± 1.9 µM | > 50 µM | – | – | – | –
C=C1CC[C@@H]2C(c3ccc(OC)cc3)=NO[C@@]2(C)CC[C@@H]2[C@@H]1CC2(C)C [Compound 17b, (3aR,6aS,8aR,10aS)-3-(4-methoxyphenyl)-8,8,10a-trimethyl-6-methylene-3a,5,6,6a,7,8,8a,9,10,10a-decahydro-4H-cyclobuta [5,6]cyclonona [1,2-d]isoxazole] | – | > 12.8 µM | < 50 µM | < 50 µM | < 50 µM | 27 ± 2.4 µM | < 50 µM | < 50 µM | – | – | –
CC1=CCCC2(CC(c3cc(Br)ccc3O)=NO2)C2CC(C)(C)C2CC1 [Compound 18a, 4-Bromo-2-((1S,2R,9R,E)-6,10,10-trimethyl-4′H-spiro[bicyclo [7.2.0]undecane-2,5′-isoxazol]-5-en-3′-yl)phenol] | – | 4.78 ± 0.6 µM | > 50 µM | > 50 µM | > 50 µM | 25.1 ± 1.8 µM | > 50 µM | – | – | – | –
C=C1CC[C@H]2C(c3cc(Br)ccc3O)=NO[C@]2(C)CC[C@@H]2[C@@H]1CC2(C)C [Compound 18b, 4-bromo-2-((3aS,6aS,8aR,10aR)-8,8,10a-trimethyl-6-methylene-3a,5,6,6a,7,8,8a,9,10,10a-decahydro-4H-cyclobuta [5,6]cyclonona [1,2-d]isoxazol-3-yl)phenol] | – | – | > 50 µM | 50 to 100 µM | > 50 µM | – | 50 to 100 µM | – | 50 to 100 µM | 50 to 100 µM | –
C/C1=C\CC[C@@]2(CC(Br)=NO2)[C@H]2CC(C)(C)[C@@H]2CC1 [Compound 19a, (1S,2R,9R,E)-3′-Bromo-6,10,10-trimethyl-4′H-spiro[bicyclo [7.2.0]undecane-2,5′-isoxazol]-5-ene] | – | > 12.3 µM | > 50 µM | > 50 µM | > 50 µM | 19.6 ± 1.1 µM | > 50 µM | – | – | – | –
C=C1CC[C@H]2C(Br)=NO[C@]2(C)CC[C@@H]2[C@@H]1CC2(C)C [Compound 19b, (3aR,6aS,8aR,10aR)-3-bromo-8,8,10a-trimethyl-6-methylene-3a,5,6,6a,7,8,8a,9,10,10a-decahydro-4H-cyclobuta [5,6]cyclonona [1,2-d]isoxazole] | – | > 33.7 µM | – | – | – | 44.2 ± 3.6 µM | – | – | – | – | –
C=C1CC[C@@H]2C(C)=NN(c3ccccc3)[C@@]2(C)CC[C@@H]2[C@@H]1CC2(C)C [Compound 21b, (3aS,6aS,8aR,10aS)-3,8,8,10a-tetramethyl-6-methylene-1-phenyl-1,3a,4,5,6,6a,7,8,8a,9,10,10a-dodecahydrocyclobuta [6,7]cyclonona [1,2-c]pyrazole] | – | > 297 µM | > 50 µM | > 50 µM | > 50 µM | 375 ± 15.6 µM | > 50 µM | – | – | – | –
C/C1=C\CC[C@@]2(CC(c3ccccc3)=NN2c2ccccc2)[C@H]2CC(C)(C)[C@@H]2CC1 [Compound 22a, (1S,2R,9R,E)-6,10,10-Trimethyl-2′,5′-diphenyl-2′,4′-dihydrospiro[bicyclo [7.2.0]undecane-2,3′-pyrazol]-5-ene] | – | 72.7 ± 9.2 µM | > 50 µM | 50 to 100 µM | > 50 µM | 170 ± 12.1 µM | 50 to 100 µM | – | 50 to 100 µM | 50 to 100 µM | –
C=C1CC[C@H]2C(c3ccccc3)=NN(c3ccccc3)[C@]2(C)CC[C@@H]2[C@@H]1CC2(C)C [Compound 22b, (3aR,6aS,8aR,10aR)-8,8,10a-trimethyl-6-methylene-1,3-diphenyl-1,3a,4,5,6,6a,7,8,8a,9,10,10a-dodecahydrocyclobuta [6,7]cyclonona [1,2-c]pyrazole] | – | > 9.28 µM | > 50 µM | < 50 µM | > 50 µM | 25.1 ± 1.6 µM | < 50 µM | – | 50 to 100 µM | 50 to 100 µM | –
C=C1CC[C@H]2C(c3c(OC)cccc3OC)=NN(c3c(Cl)cc(Cl)cc3Cl)[C@]2(C)CC[C@@H]2[C@@H]1CC2(C)C [Compound 23b, (3aR,6aS,8aR,10aR)-3-(2,6-dimethoxyphenyl)-8,8,10a-trimethyl-6-methylene-1-(2,4,6-trichlorophenyl)-1,3a,4,5,6,6a,7,8,8a,9,10,10a-dodecahydrocyclobuta [6,7]cyclonona [1,2-c]pyrazole] | – | 178 ± 20.1 µM | > 50 µM | > 50 µM | > 50 µM | > 535 µM | > 50 µM | – | – | – | –
COc1ccc(C2=NO[C@]3(CC[C@@H]4C(c5ccc(OC)cc5)=NO[C@@]4(C)CC[C@@H]4[C@@H]3CC4(C)C)C2)cc1 [Compound 26, (3aR,6R,6aS,8aR,10aS)-3,3′-Bis(4-methoxyphenyl)-8,8,10a-trimethyl-3a,4,5,6a,7,8,8a,9,10,10a-decahydro-4′H-spiro[cyclobuta [5,6]cyclonona [1,2-d]isoxazole-6,5′-isoxazole]] | – | > 652 µM | > 50 µM | > 50 µM | > 50 µM | > 652 µM | > 50 µM | – | – | – | –
CC1(C)C[C@H]2[C@H]1CC[C@@]1(C)ON=C(Br)[C@@H]1CC[C@@]21CC(Br)=NO1 [Compound 28, (3aR,6R,6aS,8aR,10aR)-3,3′-Dibromo-8,8,10a-trimethyl-3a,4,5,6a,7,8,8a,9,10,10a-decahydro-4′H-spiro[cyclobuta [5,6]cyclonona [1,2-d]isoxazole-6,5′-isoxazole]] | – | > 8.7 µM | > 50 µM | 50 to 100 µM | > 50 µM | 13.8 ± 1.2 µM | 50 to 100 µM | – | 50 to 100 µM | 50 to 100 µM | –
CC1(C)C[C@H]2[C@H]1CC[C@]1(C)[C@@H](CC[C@@]23CC(c2ccccc2)=NN3c2ccccc2)C(c2ccccc2)=NN1c1ccccc1 [Compound 29, (3aR,6R,6aS,8aR,10aR)-8,8,10a-trimethyl-1,2′,3,5′-tetraphenyl-2′,3a,4,4′,5,6a,7,8,8a,9,10,10a-Dodecahydro-1H-spiro[cyclobuta [6,7]cyclonona [1,2-c]pyrazole-6,3′-pyrazole]] | – | 102 ± 12.6 µM | > 50 µM | > 50 µM | > 50 µM | > 506 µM | > 50 µM | – | – | – | –
COc1cccc(OC)c1C1=NN(c2c(Cl)cc(Cl)cc2Cl)[C@]2(CC[C@H]3C(c4c(OC)cccc4OC)=NN(c4c(Cl)cc(Cl)cc4Cl)[C@]3(C)CC[C@@H]3[C@@H]2CC3(C)C)C1 [Compound 30, (3aR,6R,6aS,8aR,10aR)-3,5′-Bis(2,6-dimethoxyphenyl)-8,8,10a-trimethyl-1,2′-bis(2,4,6-trichlorophenyl)-2′,3a,4,4′,5,6a,7,8,8a,9,10,10a-dodecahydro-1H-spiro[cyclobuta [6,7]cyclonona [1,2-c]pyrazole-6,3′-pyrazole]] | – | 71 ± 8.8 µM | > 50 µM | > 50 µM | > 50 µM | > 330 µM | > 50 µM | – | – | – | –
CC(N)C1C[C@@H]2CC[C@H]1C2 (stereo partly shown) [Deitiforin, reference compound] | 1270 ± 82 µM | – | – | – | – | – | – | – | – | – | –
NC(=O)c1ncn([C@@H]2O[C@H](CO)[C@@H](O)[C@H]2O)n1 [Ribavirin, reference compound] | > 2000 µM | 25 µM | – | – | – | – | – | – | – | – | –
CC(N)C12CC3CC(CC(C3)C1)C2 (stereo not shown) [Rimantadine, reference compound] | 335 ± 27 µM | – | – | – | – | – | – | – | – | – | 67 ± 4.9 µM
